Experiments:
[1] = tested on: production of TNF-α by PBMC in response to stimulation by LPS; assay: TNF-α assay; assay type: cell-based, human; settings: LPS 1 μg/ml, 72 hours, sandwich ELISA
Description: Peripheral blood mononuclear cells (herein referred as PBMC), in response to stimulation by lipopolysaccharide (hereinafter LPS), a gram-negative bacterial endotoxin, produce various […], in particular human TNF-α. Inhibition of the activation of PBMC can therefore be measured by the level of suppression of the production of TNF-α by PBMC in response to stimulation by LPS.
Such inhibition measurement was performed as follows: PBMC were isolated from heparinized peripheral blood by density gradient centrifugation over Lymphoprep (commercially available from Nycomed, Norway). LPS was then added to the PMBC suspension in complete medium (10^6 cells/ml) at a final concentration of 1 μg/ml. The pteridine derivative to be tested was added at different concentrations (0.1 μM, 1 μM and 10 μM) and the cells were incubated at 37° C. for 72 hours in 5% CO2. The supernatants were collected, then TNF-α concentrations were measured with respectively an anti-TNF-α antibody in a sandwich ELISA (Duo Set ELISA human TNFα, commercially available from R&D Systems, United Kingdom). The calorimetric reading of the ELISA was measured by a Multiskan RC plate reader (commercially available from ThermoLabsystems, Finland) at 450 nm (reference wavelength: 690 nm). Data analysis was performed with Ascent software 2.6. (also from ThermoLabsystems, Finland): a standard curve (recombinant human TNFα) was drawn and the amount (pg/ml) of each sample on the standard curve was determined.
The % suppression of human TNFα production by the pteridine derivatives of the invention (drugs) was calculated using the formula: [formula]

[2] = tested on: mixed lymphocyte reaction (PBMC with allogeneic PBMC or Eppstein-Barr Virus-transformed human B cells as stimulator cells); assay: Mixed lymphocyte reaction (MLR) assay; assay type: cell-based; settings: lowest concentration giving 50% suppression of the MLR; [3H]-thymidine
Description: Pteridine derivatives were first dissolved (10 mM) in dimethylsulfoxide (hereinafter referred as DMSO) and further diluted in culture medium before use for the following in vitro experiments. The commercially available culture medium consisted of RPMI-1640+10% foetal calf serum (FCS). Some pteridine derivatives described in the previous examples (as indicated in table 1) were tested in the following mixed lymphocyte reaction (MLR) assay.
Peripheral blood mononuclear cells (hereinafter referred as PBMC) were isolated from heparinized peripheral blood by density gradient centrifugation over Lymphoprep (Nycomed, Maorstua, Norway). Allogeneic PBMC or Eppstein-Barr Virus-transformed human B cells [commercially available under the trade name RPM11788 (ATCC name CCL156)] which strongly express B7-1 and B7-2 antigens were used as stimulator cells after irradiation with 30 Gy. MLR was performed in triplicate wells. After 5 days incubation at 37° C., 1 μCi [^3H]-thymidine was added to each cup. After a further 16 hours incubation, cells were harvested and counted in a […]. Inhibition of proliferation by a compound (drug) described in some of the previous examples was counted using the formula: [formula] wherein cpm is the thymidine count per minute. The MLR assay is regarded by those skilled in the art as an in vitro analogue of the transplant rejection since it is based on the recognition of allogeneic major histocompatibility antigens on the stimulator leukocytes, by responding lymphocytes.

SMILES | IC50 [1] [µM] | IC50 [2] [µM]
COc1ccc(-c2cnc3nc(N)nc(N4CCN(C(=O)c5ccc(C#N)cc5)CC4)c3n2)cc1OC [Example 16, 2-amino-4-[N-(4-cyanobenzoyl)-piperazin-1-yl]-6-(3,4-dimethoxyphenyl)pteridine] | 0.55 | 0.8
CCCCc1ccc(C(=O)N2CCN(c3nc(N)nc4ncc(-c5ccc(OC)c(OC)c5)nc34)CC2)cc1 [Example 18, 2-amino-4-[(N-4-butylbenzoyl)-piperazin-1-yl]-6-(3,4-dimethoxyphenyl)pteridine] | 0.09 | 0.3
COc1ccc(-c2cnc3nc(N)nc(N4CCN(C(=O)c5ccncc5)CC4)c3n2)cc1OC [Example 19, 2-amino-4-[(N-isonicotinoyl)-piperazin-1-yl]-6-(3,4-dimethoxyphenyl)pteridine] | 0.06 | 2.4
COc1cccc(C(=O)N2CCN(c3nc(N)nc4ncc(-c5ccc(OC)c(OC)c5)nc34)CC2)c1 [Example 26, 2-amino-4-[N-(3-methoxybenzoyl)piperazin-1-yl]-6-(3,4-dimethoxy-phenyl)pteridine] | 0.5 | 0.5
COc1ccc(-c2cnc3nc(N)nc(N4CCN(C(=O)c5ccco5)CC4)c3n2)cc1OC [Example 27, 2-amino-4-[N-(2-furoyl)-piperazin-1-yl]-6-(3,4-dimethoxyphenyl)pteridine] | 0.5 | 0.08
COc1ccc(-c2cnc3nc(N)nc(N4CCN(C(=O)COCc5ccccc5)CC4)c3n2)cc1OC [Example 28, 2-amino-4-[(N-benzyloxyacetyl)-piperazin-1-yl]-6-(3,4-dimethoxyphenyl)pteridine] | 0.5 | 0.03
COc1ccc(-c2cnc3nc(N)nc(N4CCN(C(=O)COc5ccc(Cl)cc5)CC4)c3n2)cc1OC [Example 29] | 0.077 | 0.0005
COc1ccc(-c2cnc3nc(N)nc(N4CCN(C(=O)C5CCCCC5)CC4)c3n2)cc1OC [Example 30, 2-amino-4-[(N-cyclohexylcarbonyl)-piperazin-1-yl]-6-(3,4-dimethoxy-phenyl)pteridine] | 0.3 | 0.1
COc1ccc(-c2cnc3nc(N)nc(N4CCN(S(=O)(=O)c5ccccc5)CC4)c3n2)cc1OC [Example 31, 2-amino-4-[(N-phenylsulfonyl)-piperazin-1-yl]-6-(3,4-dimethoxy-phenyl)pteridine] | 0.5 | 3
COc1ccc(-c2cnc3nc(N)nc(N4CCN(C(=O)c5ccc(F)cc5)CC4)c3n2)cc1OC [Example 32, 2-amino-4-[(N-p-fluorobenzoyl)-piperazin-1-yl]-6-(3,4-dimethoxyphenyl)pteridine] | 0.4 | 0.4
COc1ccc(-c2cnc3nc(N)nc(N4CCN(C(=O)N5CCCC5)CC4)c3n2)cc1OC [Example 38, 2-amino-4-[(N-1-pyrrolidinylcarbonyl)-piperazin-1-yl]-6-(3,4-dimethoxy-phenyl)pteridine] | 0.06 | 0.3
COc1ccc(-c2cnc3nc(N)nc(N4CCN(C(=O)N(c5ccccc5)c5ccccc5)CC4)c3n2)cc1OC [Example 39, 2-amino-4-[(N-diphenylcarbamoyl)-piperazin-1-yl]-6-(3,4-dimethoxy-phenyl)pteridine] | 0.8 | 0.7
COc1ccc(-c2cnc3nc(N)nc(N4CCN(C(=O)c5ccccc5OC)CC4)c3n2)cc1OC [Example 42, 2-amino-4-[N-(2-methoxybenzoyl)-piperazin-1-yl]-6-(3,4-dimethoxy-phenyl)pteridine] | 0.1 | 0.4
COc1ccc(-c2cnc3nc(N)nc(N4CCN(S(=O)(=O)Cc5ccccc5)CC4)c3n2)cc1OC [Example 43, 2-amino-4-[(N-benzylsulfonyl)-piperazin-1-yl]-6-(3,4-dimethoxyphenyl)pteridine] | 0.7 | 0.2
COc1ccc(-c2cnc3nc(N)nc(N4CCN(C(=O)c5ccc(Cl)c(Cl)c5)CC4)c3n2)cc1OC [Example 44, 2-amino-4-[N-(3,4-dichlorobenzoyl)-piperazin-1-yl]-6-(3,4-dimethoxy-phenyl)pteridine] | 0.7 | 0.2
COc1ccc(-c2cnc3nc(N)nc(N4CCN(C(=O)Cc5ccc(Cl)cc5)CC4)c3n2)cc1OC [Example 45, 2-amino-4-[N-(4-chlorophenylacetyl)-piperazin-1-yl]-6-(3,4-dimethoxy-phenyl)pteridine] | 0.4 | 0.09
COc1ccc(-c2cnc3nc(N)nc(N4CCN(C(=O)OCc5ccccc5)CC4)c3n2)cc1OC [Example 48, 2-amino-4-[(N-benzyloxycarbonyl)-piperazin-1-yl]-6-(3,4-dimethoxy-phenyl)pteridine] | 0.08 | 0.3
COc1ccc(-c2cnc3nc(N)nc(N4CCN(C(=S)Oc5ccccc5)CC4)c3n2)cc1OC [Example 51, 2-amino-4-[(N-phenoxythiocarbonyl)-piperazin-1-yl]-6-(3,4-dimethoxy-phenyl)pteridine] | 0.04 | 0.3
COc1ccc(-c2cnc3nc(N)nc(N4CCN(C(=O)[C@@H](N)Cc5ccccc5)CC4)c3n2)cc1OC [Example 60, 2-amino-4-[N-(2-(S)-amino-3-phenylpropionyl)-piperazin-1-yl]-6-(3,4-dimethoxy-phenyl)pteridine] | 2.5 | 4.1
COc1ccc(-c2cnc3nc(N)nc(N4CCN(C/C=C/c5ccccc5)CC4)c3n2)cc1OC [Example 66, 2-amino-4-(N-trans-cinnamylpiperazin-1-yl)-6-(3,4-dimethoxy-phenyl)pteridine] | 0.3 | 0.8
COc1ccc(-c2cnc3nc(NCCc4ccccc4)nc(N)c3n2)cc1OC [Example 79, 2-phenylethylamino-4-amino-6-(3,4-dimethoxyphenyl)pteridine] | 9.8 | 4.1
COc1ccc(-c2cnc3nc(N)nc(N4CCCN(C(=O)COc5ccccc5)CC4)c3n2)cc1OC [Example 89] | 1.2 | 0.087
COc1ccc(-c2cnc3nc(N)nc(N4CCN(C(=O)Oc5ccc(C)cc5)CC4)c3n2)cc1OC [Example 90, 2-amino-4-[(N-4-methyl-phenoxy-carbonyl)-piperazin-1-yl]-6-(3,4-dimethoxyphenyl)pteridine] | 0.04 | 0.058
COc1ccc(-c2cnc3nc(N)nc(N4CCN(C(=O)Oc5ccc(Cl)cc5)CC4)c3n2)cc1OC [Example 94] | 0.09 | 0.1
COc1ccc(-c2cnc3nc(N)nc(N4CCN(C(=O)Oc5ccccc5Cl)CC4)c3n2)cc1OC [Example 96, 2-amino-4-[N-(2-chloro)-phenoxy-carbonyl-piperazin-1-yl]-6-(3,4-dimethoxyphenyl)pteridine] | 0.01 | 0.15
COCCOC(=O)N1CCN(c2nc(N)nc3ncc(-c4ccc(OC)c(OC)c4)nc23)CC1 [Example 97] | 0.3 | 0.24
COc1ccc(-c2cnc3nc(N)nc(N4CCN(C(=O)Nc5ccccc5)CC4)c3n2)cc1OC [Example 99, 2-amino-4-(N-phenyl-carbamoyl-piperazin-1-yl)-6-(3,4-dimethoxyphenyl)pteridine] | 0.09 | 0.0034
COc1ccc(-c2cnc3nc(N)nc(N4CCN(C(=O)Nc5ccc(C#N)cc5)CC4)c3n2)cc1OC [Example 102, 2-amino-4-(N-4-cyanophenylcarbamoyl-piperazin-1-yl)-6-(3,4-dimethoxyphenyl)pteridine] | 0.63 | 0.074
COc1ccc(-c2cnc3nc(N)nc(N4CCN(C(=O)Nc5cccc(C)c5)CC4)c3n2)cc1OC [Example 103, 2-amino-4-(N-3-methylphenylcarbamoyl-piperazin-1-yl)-6-(3,4-dimethoxyphenyl)pteridine] | 0.1 | 0.0065
COc1ccc(-c2cnc3nc(N)nc(N4CCN(C(=O)NCc5ccc(F)cc5)CC4)c3n2)cc1OC [Example 105, 2-amino-4-(N-4-fluorobenzylcarbamoyl-piperazin-1-yl)-6-(3,4-dimethoxyphenyl)pteridine] | 0.7 | 0.037

Source: patent publication US20070032477A1, “Pteridine derivatives useful for making pharmaceutical compositions” (priority 2003, published 2007)
